Experimental data published in ChEMBL document CHEMBL3603744, “Structure activity relationship of C-2 ether substituted 1,5-naphthyridine analogs of oxabicyclooctane-linked novel bacterial topoisomerase inhibitors as broad-spectrum antibacterial agents (Part-5)” (Bioorg Med Chem Lett, 2015).
In brackets after ≈: the same amount, converted by molar mass. Activity calls are given as the source filed them. The rule behind the calls is not given here.

Key:
Staphylococcus aureus [1] = assay: Antimicrobial activity against Staphylococcus aureus Smith by micro broth dilution or agar based method; assay type: functional
Streptococcus pneumoniae = assay: Antimicrobial activity against Streptococcus pneumoniae IID553 by micro broth dilution or agar based method; assay type: functional
Enterococcus faecium = assay: Antimicrobial activity against vancomycin-resistant Enterococcus faecium VanA by micro broth dilution or agar based method; assay type: functional
Escherichia coli = assay: Antimicrobial activity against Escherichia coli ATCC 25922 by micro broth dilution or agar based method; assay type: functional
Acinetobacter baumannii = assay: Antimicrobial activity against Acinetobacter baumannii IID876 by micro broth dilution or agar based method; assay type: functional
Pseudomonas aeruginosa = assay: Antimicrobial activity against Pseudomonas aeruginosa PAO1 by micro broth dilution or agar based method; assay type: functional
Staphylococcus aureus [2] = assay: Antimicrobial activity against methicillin-resistant Staphylococcus aureus OIT971 by micro broth dilution or agar based method; assay type: functional, organism-based

Row | Structure (SMILES) | MIC (Staphylococcus aureus [1]) [µg/mL] | MIC (Streptococcus pneumoniae) [µg/mL] | MIC (Enterococcus faecium) [µg/mL] | MIC (Escherichia coli) [µg/mL] | MIC (Acinetobacter baumannii) [µg/mL] | MIC (Pseudomonas aeruginosa) [µg/mL] | growth inhibition (GI) (Staphylococcus aureus [2])
1 | COC(=O)C1(COc2ccc3ncc(F)c(CCC45CCC(NCc6ccc7c(n6)NC(=O)CO7)(CC4)CO5)c3n2)CC1 | 0.125 (≈ 0.211 µM) | 2 (≈ 3.38 µM) | 16 (≈ 27 µM) | 16 (≈ 27 µM) | 8 (≈ 13.5 µM) | 16 (≈ 27 µM) | Active
2 | CCOC(=O)C(F)(F)CCOc1ccc2ncc(F)c(CCC34CCC(NCc5ccc6c(n5)NC(=O)CO6)(CC3)CO4)c2n1 | 1 (≈ 1.59 µM) | 8 (≈ 12.7 µM) | 64 (≈ 102 µM) | 64 (≈ 102 µM) | 32 (≈ 50.8 µM) | 64 (≈ 102 µM) | Active
3 | N#CCCCOc1ccc2ncc(F)c(CCC34CCC(NCc5ccc6c(n5)NC(=O)CO6)(CC3)CO4)c2n1 | 0.031 (≈ 0.0567 µM) | 0.5 (≈ 0.915 µM) | 2 (≈ 3.66 µM) | 4 (≈ 7.32 µM) | 2 (≈ 3.66 µM) | 16 (≈ 29.3 µM) | Active
4 | O=C1COc2ccc(CNC34CCC(CCc5c(F)cnc6ccc(OC[C@H]7C[C@@H]7C(=O)O)nc56)(CC3)OC4)nc2N1 | 0.25 (≈ 0.433 µM) | 0.25 (≈ 0.433 µM) | 4 (≈ 6.93 µM) | 16 (≈ 27.7 µM) | 16 (≈ 27.7 µM) | 16 (≈ 27.7 µM) | Active
5 | O=C1COc2ccc(CNC34CCC(CCc5c(F)cnc6ccc(OC7CCC7)nc56)(CC3)OC4)nc2N1 | 0.125 (≈ 0.234 µM) | 2 (≈ 3.75 µM) | 8 (≈ 15 µM) | 64 (≈ 120 µM) | 8 (≈ 15 µM) | 64 (≈ 120 µM) | Active
6 | O=C1COc2ccc(CNC34CCC(CCc5c(F)cnc6ccc(OCCc7cc(=O)c(O)c[nH]7)nc56)(CC3)OC4)nc2N1 | 16 (≈ 25.9 µM) | 8 (≈ 13 µM) | 32 (≈ 51.9 µM) | 32 (≈ 51.9 µM) | 32 (≈ 51.9 µM) | 32 (≈ 51.9 µM) | Active
7 | N[C@@H]1CO[C@@H]1COc1ccc2ncc(F)c(CCC34CCC(NCc5ccc6c(n5)NC(=O)CO6)(CC3)CO4)c2n1 | 0.125 (≈ 0.221 µM) | 1 (≈ 1.77 µM) | 8 (≈ 14.2 µM) | 8 (≈ 14.2 µM) | 1 (≈ 1.77 µM) | 32 (≈ 56.7 µM) | Active
8 | N[C@@H]1COC[C@H]1Oc1ccc2ncc(F)c(CCC34CCC(NCc5ccc6c(n5)NC(=O)CO6)(CC3)CO4)c2n1 | 0.125 (≈ 0.221 µM) | 0.5 (≈ 0.886 µM) | 8 (≈ 14.2 µM) | 4 (≈ 7.08 µM) | 1 (≈ 1.77 µM) | 16 (≈ 28.3 µM) | Active
9 | NC(=O)C(F)(F)CCOc1ccc2ncc(F)c(CCC34CCC(NCc5ccc6c(n5)NC(=O)CO6)(CC3)CO4)c2n1 | 0.063 (≈ 0.105 µM) | 1 (≈ 1.67 µM) | 8 (≈ 13.3 µM) | 8 (≈ 13.3 µM) | 4 (≈ 6.66 µM) | 32 (≈ 53.3 µM) | Active
10 | O=C1COc2ccc(CNC34CCC(CCc5c(F)cnc6ccc(OCC7(C(=O)O)CC7)nc56)(CC3)OC4)nc2N1 | 0.5 (≈ 0.866 µM) | 2 (≈ 3.46 µM) | 16 (≈ 27.7 µM) | 16 (≈ 27.7 µM) | 16 (≈ 27.7 µM) | 16 (≈ 27.7 µM) | Active
11 | O=C(O)COc1ccc2ncc(F)c(CCC34CCC(NCc5ccc6c(n5)NC(=O)CO6)(CC3)CO4)c2n1 | 16 (≈ 29.8 µM) | 16 (≈ 29.8 µM) | 16 (≈ 29.8 µM) | 16 (≈ 29.8 µM) | 16 (≈ 29.8 µM) | 16 (≈ 29.8 µM) | Active
12 | O=C(O)CCCCOc1ccc2ncc(F)c(CCC34CCC(NCc5ccc6c(n5)NC(=O)CO6)(CC3)CO4)c2n1 | 0.063 (≈ 0.109 µM) | 0.25 (≈ 0.431 µM) | 2 (≈ 3.45 µM) | 16 (≈ 27.6 µM) | 16 (≈ 27.6 µM) | 16 (≈ 27.6 µM) | Active
13 | O=C1COc2ccc(CNC34CCC(CCc5c(F)cnc6ccc(OCC(CO)CO)nc56)(CC3)OC4)nc2N1 | 0.125 (≈ 0.22 µM) | 0.5 (≈ 0.881 µM) | 4 (≈ 7.05 µM) | 16 (≈ 28.2 µM) | 8 (≈ 14.1 µM) | 32 (≈ 56.4 µM) | Active
